Data on 1 substance can be found in patent publication US20230183310A1, “Polypeptide Compounds and Use Thereof in the Prevention or Treatment of Diabetes or Diabetic Complications” (Shenzhen Turier Biotech Co., Ltd., priority 2020, published 2023).

*1 amine or outer side, *2 acyl side, *3 side chain or, on linkers, in order; H or OH if unused. Primed or numbered codes have the meaning given here. Where no end group is shown, it is not given here. Side-chain parts run from the residue outwards. [ ]: non-standard residue; d: D form. The star is where a group is joined. C20 diacid = O=C(O)CCCCCCCCCCCCCCCCCCC(=O)*; γGlu = O=C(O)[C@H](CCC(=O)[*:2])N[*:1]; PEG2′ = not defined here; Aib = CC(C)(N)C(=O)O

One test has as its system C57BL/6J mice. The test is described as follows: Oral glucose tolerance (OGTT), repeated glucose loads followed to 24 h after one s.c. dose. The format is in vivo. Particulars: four OGTT curves (0-22 h); 100 μg/kg subcutaneously. How it is done: Eight-week-old male C57BL/6J mice (Model Animal Research Center, Nanjing University) were randomly grouped according to similar blood glucose (assessed by blood samples obtained from the tail tip), with six mice in each group. […] The initial blood samples (fasted blood glucose levels) were obtained after about 4 h. Subsequently, an oral dose of glucose (2 g/kg) was administered and the animals were placed back in their holding cages (t=0). […] The oral dose of glucose was then repeated at 8 h of administration, 12 h of administration and […], and blood glucose changes were detected and followed until 24 hours. The data were processed using the software GraphPadPrism to make a line graph of blood glucose changes, and the area under the curve was calculated to obtain an AUC graph, and the results are shown in FIG. 1.

A further test has as its system FN protein (fibronectin). Put plainly: Western blot of FN protein in high glucose-induced in vitro renal fibrosis cell model. Format: cell-based, rat. Particulars: 10 μM; 30 mmol/L glucose; 48 h; mesangial and renal epithelial cells. The text has this:
Hyperglycemia and increased production of glycosylation end products will cause morphological changes such as proliferation and hypertrophy of glomerular mesangial cells, increase in extracellular matrix (ECM) and mesangial expansion, which will eventually lead to the loss of its physiological function. […] Therefore, this example used high glucose to induce MCS mesangial cells and NRK renal epithelial cells to construct an in vitro renal fibrosis cell model for screening medicaments useful for the treatment of diabetic nephropathy. The renal mesangial cell strain GMC and glomerular epithelial cells mTEC used in this example were both cells kept in the applicant's laboratory (both were extracted from rat renal primary cells) and cultured in low sugar medium containing 10% fetal bovine serum. The cells were starved with serum-free culture medium for 24 h when grew to 70% confluence. The cells were divided into the following 9 groups by adjusting the glucose concentration as follows: […]

For test [1], the system named is db/db diabetic mice. The test is described as follows: Dose determination in 8-week-old db/db diabetic mice: blood glucose and body weight. Format: in vivo. As for the experimental part: The db/db mice diabetic model (purchased from Nanjing University-Nanjing Institute of Biomedical Research, about 8 weeks, and blood glucose and body weight were measured to ensure the smooth subsequent experiments) was obtained, and the model mice were randomly divided into 12 groups (including polypeptide compounds 3, 8, 13, 15, semaglutide and physiological saline groups), with 6 mice in each group and no difference in basal body weight and blood glucose. Each group was injected subcutaneously with compound 3 (80 and 120 μg/kg, 2 groups), compound 8 (80 and 120 μg/kg, 2 groups), compound 13 (80 and 120 μg/kg, 2 groups), compound 15 (80 and 120 μg/kg, 2 groups), semaglutide (80 and 120 μg/kg, 2 groups) and physiological saline (DN group: normal mice born in the same litter; DC group: db/db mice control group) every day or every other day.
Blood glucose and body weight of mice were measured after daily administration and 6 h fasting on alternate days.

The test system of test [2] is db/db diabetic mice. The test is described as follows: Treatment of 12-week-old db/db diabetic mice: blood glucose, OGTT, ITT, ALT/AST, diabetic nephropathy indices. Format: in vivo. How it is done:
Normal mice born in the same litter; DC group: db/db mice control group). Blood glucose and body weight were measured on alternate days after daily administration of the medicament, and water intake and food intake were measured once a week. OGTT was measured at week 4, insulin tolerance (ITT) was measured at week 5, metabolism of mice was examined using mouse metabolic cages at weeks 6-7, and various serological and pathological indices were taken at week 8.
Type 2-diabetes mice were characterized by obesity, insulin resistance, hyperglycemia, dyslipidemia and hepatic fat vacuole-like degeneration.
After 6 weeks of medical treatment, the mice was collected for urine using metabolic cages, and the protein content in the urine was detected using relevant kits. After 7 weeks of medical treatment, the material was taken and blood was used to detect serological indicators such as blood creatinine and urea nitrogen.

In the case of “His-(D-Ser)-Gln-Gly-Thr-Phe-Thr-Ser-Asp-Lys(PEG2-PEG2-γGlu-CO(CH2)18CO2H)-Ser-Lys-Tyr-Leu-Glu-Aib-Lys-Ala-Ala-Gln-Asp-Phe-Val-Glu-Trp-Leu-Lys-Ala-Gly-Gly-Pro-Ser-Ser-Gly-Ala-Pro-Pro-Pro-Ser-NH2 (H[dS]QGTFTSDK([PEG2′-PEG2′-γGlu-C20 diacid])SKYLE[Aib]KAAQDFVEWLKAGGPSSGAPPPS-NH2) [Compound 3]”, the “long-acting hypoglycemic effects compared to semaglutide” value in the test on C57BL/6J mice is “superior and significant long-acting hypoglycemic effects”. In addition, the “FN protein expression (Western blot)” value in the test with FN protein (fibronectin) is reported as “inhibited FN expression more significantly”. Besides, the “body weight (weight-lowering effect)” value in the test with db/db diabetic mice [1] (FIG. 3A, daily s.c.) is “better weight-lowering effect”. Also, the “blood glucose (glucose-lowering effect)” value is given as “significant glucose-lowering effect” in the test on db/db diabetic mice [1] (FIG. 3A, daily s.c., 80 μg/kg) and “good glucose-lowering effect in 3-5 days” with db/db diabetic mice [1] (FIG. 3A, daily s.c., 120 μg/kg, vs saline DC group). For the same substance, the overall hypoglycemic effect entry with db/db diabetic mice [1] (FIG. 3B, every other day s.c.) is recorded as “more excellent hypoglycemic effect”. Besides, the “blood glucose (hypoglycemic effect)” value in the test on db/db diabetic mice [1] (FIG. 3B, every other day s.c., 80 μg/kg) is “first decrease and then increase, and the overall hypoglycemic effect was significant”; in the test with db/db diabetic mice [1] (FIG. 3B, every other day s.c., 120 μg/kg), “good hypoglycemic effect on days 3-5”. In addition, the “subsequent blood glucose course (long-lasting effect)” value in the test with db/db diabetic mice [1] (FIG. 3B, every other day s.c., 120 μg/kg, from day 3 / after days 3-5) is recorded as “the blood glucose did not change much”. In the test with db/db diabetic mice [2] (FIG. 4A, 120 μg/kg s.c. daily, blood glucose at normal levels at week 1), the “weekly blood glucose (hypoglycemic effect)” value was “significant hypoglycemic effects”. Besides, the “improving oral glucose tolerance (OGTT)” value in the test on db/db diabetic mice [2] (FIG. 4B, week 4, 120 μg/kg s.c. daily) is reported as “performed more excellent”. Further, in the test with db/db diabetic mice [2] (FIG. 4C, week 5, 120 μg/kg s.c. daily), the “improving insulin resistance (ITT)” value is given as “performed more excellent”. For the same substance, the “ALT and AST in serum (hepatoprotective function)” value in the test on db/db diabetic mice [2] (FIG. 4D, 120 μg/kg s.c. daily) is “more excellent hepatoprotective functions”. Also, the “H&E staining of kidneys: glomerular adhesion, ameliorative and therapeutic effects” value in the test with db/db diabetic mice [2] (FIG. 5B, after 8 weeks, compared to semaglutide, SAR425899 and MED C18-acid groups) was “more significant”. The “PAS staining of kidneys: ameliorative effects on glomerular mesangial region” value in the test on db/db diabetic mice [2] (FIG. 5C, after 8 weeks) is reported as “more significant”. In the test with db/db diabetic mice [2] (FIGS. 5D to 5F, after 8 weeks, compared to semaglutide, SAR425899 and MED C18-acid groups), the “collagen content (Sirius red, FN and α-SMA staining of kidneys)” value is reported as “improved more significantly”.
